Assay results reported in article PMC8881077 (Journal of Enzyme Inhibition and Medicinal Chemistry, 2022).
Read-outs that look alike come from different tables or passages of the source.

Tests used:
ratAChE = target: T1, ratAChE (Rattus norvegicus, UniProt P37136); test: biochemical; details: for SI: Selectivity Index = IC50 (BuChE)/IC50 (AChE), rat enzymes; for IC50: from 5% rat cortex homogenate
T1 construct: AChE from 5% rat cortex homogenate or human erythrocytes (Sigma Co.); from tissue; host or cells: 5% rat cortex homogenate
T1 sequence (P37136 32-614): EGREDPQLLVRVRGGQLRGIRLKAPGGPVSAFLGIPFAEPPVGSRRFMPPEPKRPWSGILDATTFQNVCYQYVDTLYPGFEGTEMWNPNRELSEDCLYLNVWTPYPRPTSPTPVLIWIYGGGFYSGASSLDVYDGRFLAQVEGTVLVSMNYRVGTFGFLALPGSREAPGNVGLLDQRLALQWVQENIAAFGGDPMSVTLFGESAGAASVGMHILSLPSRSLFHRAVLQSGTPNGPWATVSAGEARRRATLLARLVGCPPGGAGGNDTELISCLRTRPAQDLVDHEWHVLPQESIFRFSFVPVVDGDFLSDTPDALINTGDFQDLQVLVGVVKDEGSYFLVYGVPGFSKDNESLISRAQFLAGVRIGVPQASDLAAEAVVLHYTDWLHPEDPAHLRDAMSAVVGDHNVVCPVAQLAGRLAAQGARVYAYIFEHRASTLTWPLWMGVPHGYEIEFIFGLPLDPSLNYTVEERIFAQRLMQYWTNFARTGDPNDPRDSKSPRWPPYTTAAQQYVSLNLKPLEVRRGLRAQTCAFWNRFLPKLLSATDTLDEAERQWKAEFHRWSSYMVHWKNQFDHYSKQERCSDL
Procedure: (§1) The AChE and BuChE inhibitory activities of the synthesised compounds were evaluated using the Ellman assay with slight modification. AChE from 5% rat cortex homogenate or human erythrocytes (Sigma Co.). BuChE from rat serum or human serum (Sigma Co.).

[1] = Trolox as standard
Procedure: The skeleton compounds naringenin and apigenin were also evaluated for comparison purposes, and vitamin E analogue Trolox was used as a standard.
The antioxidant potency of target compounds was tested using an oxygen radical absorbance capacity fluorescein (ORAC-FL) assay.

ratBuChE = target: T2, ratBuChE (Rattus norvegicus, UniProt Q9JKC1); test: ratBuChE inhibition, modified Ellman's method; type: biochemical
T2 construct: BuChE from rat serum or human serum (Sigma Co.); from tissue; host or cells: rat serum
Procedure: as §1

PC12 cells = test: Neuroprotective effect on H2O2-induced PC12 cells injury, MTT assay; type: cell-based; details: compound 100 μM, 100 μM H2O2, PC12 cells

T2 sequence (Q9JKC1 24-597): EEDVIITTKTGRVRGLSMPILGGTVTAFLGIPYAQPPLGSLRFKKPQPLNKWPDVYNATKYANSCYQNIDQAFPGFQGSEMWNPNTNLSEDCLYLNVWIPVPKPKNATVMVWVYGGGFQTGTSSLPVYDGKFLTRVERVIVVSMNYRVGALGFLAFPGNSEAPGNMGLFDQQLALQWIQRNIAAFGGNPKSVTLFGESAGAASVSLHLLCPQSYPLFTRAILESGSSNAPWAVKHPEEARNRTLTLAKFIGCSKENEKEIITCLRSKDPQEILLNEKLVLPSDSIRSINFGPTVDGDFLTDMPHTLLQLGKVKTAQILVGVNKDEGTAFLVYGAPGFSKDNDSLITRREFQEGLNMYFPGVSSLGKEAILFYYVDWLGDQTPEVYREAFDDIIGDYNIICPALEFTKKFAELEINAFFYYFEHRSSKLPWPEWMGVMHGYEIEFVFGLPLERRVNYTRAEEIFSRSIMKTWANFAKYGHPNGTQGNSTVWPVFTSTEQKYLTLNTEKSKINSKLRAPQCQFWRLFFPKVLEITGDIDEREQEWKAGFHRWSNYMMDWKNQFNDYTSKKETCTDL

Compound	SI (ratAChE)	IC50 (ratAChE; read-out: IC50 ± SD ratAChE) [µM]	ORAC [1]	IC50 (ratBuChE) [µM]	IC50 (ratAChE; IC50 ± SD ratAChE) [µM]	cell viability (PC12 cells) [%]
O=c1cc(-c2ccc(OCCCN3CCC(Cc4ccccc4)CC3)cc2)oc2cc(OCCCN3CCC(Cc4ccccc4)CC3)cc(O)c12 [Compound 10c, 7–(3-(4-benzylpiperidin-1-yl)propoxy)-2–(4-(3–(4-benzylpiperidin-1-yl)propoxy)phenyl)-5-hydroxy-4H-chromen-4-one]	2.5	5.5 ± 0.17	1.2 ± 0.03 μM of Trolox equivalent/μM of tested compound	13.6 ± 0.67		
O=c1cc(-c2ccc(OCCCN3CCC(c4ccccc4)CC3)cc2)oc2cc(OCCCN3CCC(c4ccccc4)CC3)cc(O)c12 [Compound 10d, 5-hydroxy-7–(3-(4-phenylpiperidin-1-yl)propoxy)-2–(4-(3–(4-phenylpiperidin-1-yl)propoxy)phenyl)-4H-chromen-4-one]	2.4	6.4 ± 0.22	1.1 ± 0.02 μM of Trolox equivalent/μM of tested compound	15.1 ± 0.49		
O=c1cc(-c2ccc(OCCCN3CCC(CCCc4ccccc4)CC3)cc2)oc2cc(OCCCN3CCC(CCCc4ccccc4)CC3)cc(O)c12 [Compound 10e, 5-hydroxy-7–(3-(4–(3-phenylpropyl)piperidin-1-yl)propoxy)-2–(4-(3–(4–(3-phenylpropyl)piperidin-1-yl)propoxy)phenyl)-4H-chromen-4-one]		7.9 ± 0.26	1.1 ± 0.02 μM of Trolox equivalent/μM of tested compound	13.8 ± 0.43		
CC1CC(C)CN(CCCOc2ccc(-c3cc(=O)c4c(O)cc(OCCCN5CC(C)CC(C)C5)cc4o3)cc2)C1 (stereo not shown) [Compound 10f, 7–(3-(3,5-dimethylpiperidin-1-yl)propoxy)-2–(4-(3–(3,5-dimethylpiperidin-1-yl)propoxy)phenyl)-5-hydroxy-4H-chromen-4-one]	1.9	8.6 ± 0.33	1.0 ± 0.04 μM of Trolox equivalent/μM of tested compound	16.7 ± 0.52		
O=c1cc(-c2ccc(OCCCCN3CCc4ccccc4C3)cc2)oc2cc(OCCCCN3CCc4ccccc4C3)cc(O)c12 [Compound 10g, 7–(4-(3,4-dihydroisoquinolin-2(1H)-yl)butoxy)-2–(4-(4–(3,4-dihydroisoquinolin-2(1H)-yl)butoxy)phenyl)-5-hydroxy-4H-chromen-4-one]	3.8	4.6 ± 0.21	1.2 ± 0.03 μM of Trolox equivalent/μM of tested compound	17.4 ± 0.35		
O=c1cc(-c2ccc(OCCCCN3CCN(Cc4ccccc4)CC3)cc2)oc2cc(OCCCCN3CCN(Cc4ccccc4)CC3)cc(O)c12 [Compound 10i, 7–(4-(4-Benzylpiperazin-1-yl)butoxy)-2–(4–(4-(4-benzylpiperazin-1-yl)butoxy)phenyl)-5-hydroxy-4H-chromen-4-one]		6.9 ± 0.14	1.5 ± 0.02 μM of Trolox equivalent/μM of tested compound	10.3 ± 0.19		
O=c1cc(-c2ccc(OCCCCN3CCC(Cc4ccccc4)CC3)cc2)oc2cc(OCCCCN3CCC(Cc4ccccc4)CC3)cc(O)c12 [Compound 10j, 7–(4-(4-Benzylpiperidin-1-yl)butoxy)-2–(4–(4-(4-benzylpiperidin-1-yl)butoxy)phenyl)-5-hydroxy-4H-chromen-4-one]	8.7	1.8 ± 0.04	1.2 ± 0.03 μM of Trolox equivalent/μM of tested compound	15.7 ± 0.24		
O=c1cc(-c2ccc(OCCCCCN3CCC(Cc4ccccc4)CC3)cc2)oc2cc(OCCCCCN3CCC(Cc4ccccc4)CC3)cc(O)c12 [Compound 10m, 7-((5–(4-benzylpiperidin-1-yl)pentyl)oxy)-2–(4-((5–(4-benzylpiperidin-1-yl)pentyl)oxy)phenyl)-5-hydroxy-4H-chromen-4-one]	12.8	1.3 ± 0.08	1.2 ± 0.02 μM of Trolox equivalent/μM of tested compound	16.6 ± 0.27		
O=c1cc(-c2ccc(OCCCCCN3CCC(c4ccccc4)CC3)cc2)oc2cc(OCCCCCN3CCC(c4ccccc4)CC3)cc(O)c12 [Compound 10n, 5-hydroxy-7-((5–(4-phenylpiperidin-1-yl)pentyl)oxy)-2–(4-((5–(4-phenylpiperidin-1-yl)pentyl)oxy)phenyl)-4H-chromen-4-one]	4.9	3.6 ± 0.11	1.1 ± 0.04 μM of Trolox equivalent/μM of tested compound	17.9 ± 0.46		
O=c1cc(-c2ccc(OCCCCCN3CCC(CCCc4ccccc4)CC3)cc2)oc2cc(OCCCCCN3CCC(CCCc4ccccc4)CC3)cc(O)c12 [Compound 10o, 5-hydroxy-7-((5–(4-(3-phenylpropyl)piperidin-1-yl)pentyl)oxy)-2–(4-((5–(4–(3-phenylpropyl)piperidin-1-yl)pentyl)oxy)phenyl)-4H-chromen-4-one]	3.9	4.1 ± 0.63	1.2 ± 0.03 μM of Trolox equivalent/μM of tested compound	16.1 ± 0.25		
CC1CC(C)CN(CCCCCOc2ccc(-c3cc(=O)c4c(O)cc(OCCCCCN5CC(C)CC(C)C5)cc4o3)cc2)C1 (stereo not shown) [Compound 10p, 7-((5–(3,5-dimethylpiperidin-1-yl)pentyl)oxy)-2–(4-((5–(3,5-dimethylpiperidin-1-yl)pentyl)oxy)phenyl)-5-hydroxy-4H-chromen-4-one]	2.2	6.2 ± 0.54	1.1 ± 0.02 μM of Trolox equivalent/μM of tested compound	13.8 ± 0.37		
O=c1cc(-c2ccc(OCCCCCCN3CCc4ccccc4C3)cc2)oc2cc(OCCCCCCN3CCc4ccccc4C3)cc(O)c12 [Compound 10q, 7-((6–(3,4-dihydroisoquinolin-2(1H)-yl)hexyl)oxy)-2–(4-((6–(3,4-dihydroisoquinolin-2(1H)-yl)hexyl)oxy)phenyl)-5-hydroxy-4H-chromen-4-one]	2.9	4.2 ± 0.15	1.0 ± 0.02 μM of Trolox equivalent/μM of tested compound	12.2 ± 0.28		
CCN(CCCCCCOc1ccc(-c2cc(=O)c3c(O)cc(OCCCCCCN(CC)Cc4ccccc4)cc3o2)cc1)Cc1ccccc1 [Compound 10r, 7-((6-(benzyl(ethyl)amino)hexyl)oxy)-2–(4-((6-(benzyl(ethyl)amino)hexyl)oxy)phenyl)-5-hydroxy-4H-chromen-4-one]	8.3	1.7 ± 0.21	1.2 ± 0.04 μM of Trolox equivalent/μM of tested compound	14.1 ± 0.22		
O=c1cc(-c2ccc(OCCCCCCN3CCC(Cc4ccccc4)CC3)cc2)oc2cc(OCCCCCCN3CCC(Cc4ccccc4)CC3)cc(O)c12 [Compound 10s, 7-((6–(4-benzylpiperidin-1-yl)hexyl)oxy)-2–(4-((6–(4-benzylpiperidin-1-yl)hexyl)oxy)phenyl)-5-hydroxy-4H-chromen-4-one]	6.5	2.6 ± 0.33	1.1 ± 0.03 μM of Trolox equivalent/μM of tested compound	16.9 ± 0.54		
O=c1cc(-c2ccc(OCCCCCCN3CCC(c4ccccc4)CC3)cc2)oc2cc(OCCCCCCN3CCC(c4ccccc4)CC3)cc(O)c12 [Compound 10t, 5-hydroxy-7-((6–(4-phenylpiperidin-1-yl)hexyl)oxy)-2–(4-((6–(4-phenylpiperidin-1-yl)hexyl)oxy)phenyl)-4H-chromen-4-one]	3.3	5.9 ± 0.37	1.0 ± 0.02 μM of Trolox equivalent/μM of tested compound	19.3 ± 0.67		
O=c1cc(-c2ccc(OCCCCCCN3CCC(CCCc4ccccc4)CC3)cc2)oc2cc(OCCCCCCN3CCC(CCCc4ccccc4)CC3)cc(O)c12 [Compound 10u, 5-hydroxy-7-((6–(4-(3-phenylpropyl)piperidin-1-yl)hexyl)oxy)-2–(4-((6–(4–(3-phenylpropyl)piperidin-1-yl)hexyl)oxy)phenyl)-4H-chromen-4-one]	2.7	6.3 ± 0.21	1.2 ± 0.03 μM of Trolox equivalent/μM of tested compound	17.2 ± 0.45		
CC1CC(C)CN(CCCCCCOc2ccc(-c3cc(=O)c4c(O)cc(OCCCCCCN5CC(C)CC(C)C5)cc4o3)cc2)C1 (stereo not shown) [Compound 10v, 7-((6–(3,5-dimethylpiperidin-1-yl)hexyl)oxy)-2–(4-((6–(3,5-dimethylpiperidin-1-yl)hexyl)oxy)phenyl)-5-hydroxy-4H-chromen-4-one]	1.8	8.1 ± 0.49	1.3 ± 0.03 μM of Trolox equivalent/μM of tested compound	14.8 ± 0.29		
O=c1cc(-c2ccc(O)cc2)oc2cc(O)cc(O)c12 [apigenin, reference compound]			5.6 ± 0.52 μM of Trolox equivalent/μM of tested compound	> 50	> 50	
Vitamine E [reference compound]						67.6
